The source of these data is US7173026B2, “Pyrrolo [2,1-c][1,4]benzodiazepine-anthraquinone conjugates useful as antitumour agents” (Council of Scientific and Industrial Research, priority 2004, dated 2007).

Holding throughout (format): cell-based
Holding throughout (details): 48 hours

One experiment deals with SiHa. The experiment is described as follows: In vitro cytotoxicity against human cancer cell lines (sulforhodamine B), SiHa. Here is the method: (§1) In vitro cytotoxicity against human cancer cell lines: The human cancer cell lines procured from National Cancer Institute, Frederick, U.S.A or National Center for Cell Science; Pune, India. were used in present study. Cells were grown in tissue culture flasks in complete growth medium (RPMI-1640 medium with 2 mM glutamine, 100 μg/ml streptomycin, pH 7.4, sterilized by filtration and supplemented with 10% fetal calf serum and 100 units/ml penicillin before use) at 37° C. in an atmosphere of 5% CO2 and 90% relative humidity in a carbon dioxide incubator. The cells at subconfluent stage were harvested from the flask by treatment with trypsin (0.5% in PBS containing 0.02% EDTA) for determination of cytotoxicity. Cells with viability of more than 98% as determined by trypan blue exclusion were used for assay. Cell suspension of the required cell density were prepared in complete growth medium with gentamycin (50 μg/ml) for determination of cytotoxicity.
(§2) Stock solutions of (2×10–2 M of test material were prepared in DMSO (Dimethyl sulphoxide). The stock solutions were serially diluted with complete growth medium containing 50 μg/ml of gentamycin to obtain working test solutions of required concentrations.
(§3) In vitro cytotoxicity against human cancer cell lines was determined (Monks, A , Scudiero, D., Skehan, P., Shoemaker R., Paull, K., Vistica, D., Hose, C., Langley, j., Cronise, P., Vaigro-Wolff, A., Gray-Goodrich, M., Campbell, H., Mayo, J and Boyd m.J. Natl. Cancer Inst., 1991, 83, 757–766) using 96-well tissue culture plates. 100 μl of cell suspension was added to each well of the 96-well tissue culture plate. The cells were incubated for 24 hours. Test materials in complete growth medium (100 μl) were added after 24 hours incubation to the wells containing cell suspension. The plates were further incubated for 48 hours (at 37° C. in an atmosphere of […] 90% relative humidity in a carbon dioxide incubator) after addition of test material and then the cell growth was stopped by gently layering trichloroacetic acid (TCA, 50 μl, 50%) on top of the medium in all the wells. The plates were incubated at 4° C. for one hour to fix the cells attached to the bottom of the wells. The liquid of all the wells was gently pipetted out and discarded. The plates were washed five times with distilled water to remove TCA, growth medium low molecular weight metabolites, serum proteins etc and air-dried. Cell growth was measured by staining with sulforhodamine B dye (Skehan et al., 1990). The adsorbed dye was dissolved in Tris-Buffer (100 m l, 0.01M, pH 10.4) and plates were gently stirred for 5 minutes on a mechanical stirrer. The optical density was recorded on ELISA reader at 540 nm.
(§4) The cell growth was calculated by subtracting mean OD value of respective blank from the mean OD value of experimental set. Percent growth in presence of test material was calculated considering the growth in absence of any test material as 100% and in turn percent growth inhibition in presence of test material will be calculated.

The next experiment deals with HCT-15. The experiment is described as follows: In vitro cytotoxicity against human cancer cell lines (sulforhodamine B), HCT-15. Here is the method:
as §1, §2
as §3, with “The plates were washed five times with distilled water to remove TCA, growth medium low molecular weight metabolites, serum proteins etc and air-dried.” left out, “The adsorbed dye was dissolved in Tris-Buffer (100 m l, 0.01M, pH 10.4) and plates were gently stirred for 5 minutes on a mechanical stirrer.” left out
as §4

In another experiment the test system is A-549. The experiment is described as follows: In vitro cytotoxicity against human cancer cell lines (sulforhodamine B), A-549. Here is the method:
as §1, §2, §3, §4

The subject of another experiment is HOP-62. The experiment is described as follows: In vitro cytotoxicity against human cancer cell lines (sulforhodamine B), HOP-62. Here is the method: as §1, §2
as §3, with “The plates were washed five times with distilled water to remove TCA, growth medium low molecular weight metabolites, serum proteins etc and air-dried.” left out, “The adsorbed dye was dissolved in Tris-Buffer (100 m l, 0.01M, pH 10.4) and plates were gently stirred for 5 minutes on a mechanical stirrer.” left out
as §4

In a further experiment the test system is HT-29. The experiment in a line: In vitro cytotoxicity against human cancer cell lines (sulforhodamine B), HT-29. Here is the method:
as §1, §2, §3, §4

Setting [1] is: HCT-15, concentration 10-5 mol/L.
Setting [2] is: HCT-15, concentration 10-6 mol/L.
Setting [3] is: A-549, concentration 10-4 mol/L.
Where [4] appears, read: A-549, concentration 10-5 mol/L.
Where [5] appears, read: A-549, concentration 10-6 mol/L.
[6] abbreviates: HOP-62, concentration 10-5 mol/L.
[7] abbreviates: HOP-62, concentration 10-6 mol/L.
Where [8] appears, read: HT-29, concentration 10-4 mol/L.
Setting [9] is: HT-29, concentration 10-5 mol/L.
The mark [10] stands for this setting: HT-29, concentration 10-6 mol/L.

As for `COc1cc2c(cc1OCCCC(=O)Nc1cccc3c1C(=O)c1ccccc1C3=O)N=C[C@@H]1CCCN1C2=O` [compound Va, 7-Methoxy-8-[N-(9,10-dihydro-9,10-dioxo-1-anthracenyl)-propane-3-carboxamide]-oxy-(11aS)-1,2,3,11a tetrahydro-5H-pyrrolo[2,1-c][1,4]benzodiazepin-5-one], the percentage growth inhibition in the experiment on SiHa (concentration 10-4 mol/L) is given as 57%; in the experiment with SiHa (concentration 10-5 mol/L), 52%; with SiHa (concentration 10-6 mol/L), 41%; in the experiment with HCT-15 (setting [1]) it was 66%; in the experiment with HCT-15 (setting [2]) it was 59%; in the experiment with A-549 (setting [3]), 93%. Further, the percentage growth inhibition with A-549 (setting [4]) was 27%; with A-549 (setting [5]) it was 47%; in the experiment on HOP-62 (setting [6]), 90%; with HOP-62 (setting [7]), 74%; in the experiment on HT-29 (setting [8]) it was 93%; in the experiment on HT-29 (setting [9]) it was 86%. Moreover, the percentage growth inhibition with HT-29 (setting [10]) amounted to 68%.

For the compound `COc1cc2c(cc1OCCCCC(=O)Nc1cccc3c1C(=O)c1ccccc1C3=O)N=C[C@@H]1CCCN1C2=O` [compound Vc, 7-Methoxy-8-[N-(9,10-dihydro-9,10-dioxo-1-anthracenyl)-butane-4-carboxamide]-oxy-(11aS)-1,2,3,11a tetrahydro-5H-pyrrolo [2,1-c][1,4]benzodiazepin-5-one], the percentage growth inhibition in the experiment with SiHa (concentration 10-4 mol/L) is 73%; in the experiment with SiHa (concentration 10-5 mol/L), 49%; in the experiment with SiHa (concentration 10-6 mol/L), 40%; with HCT-15 (setting [1]), 82%; in the experiment with HCT-15 (setting [2]), 61%; with A-549 (setting [3]), 93%. Moreover, the percentage growth inhibition in the experiment with A-549 (setting [4]) was 10%; in the experiment with A-549 (setting [5]), 56%; in the experiment with HOP-62 (setting [6]) it was 97%; with HOP-62 (setting [7]), 73%; in the experiment on HT-29 (setting [8]), 93%; in the experiment with HT-29 (setting [9]), 87%. In addition, in the experiment with HT-29 (setting [10]), the percentage growth inhibition turned out to be 73%.
